Consider 64 compounds from a melting point compilation (Tetko et al.; mined from patent text by program, amines drawn as free bases though some values may be those of a salt).

The term melting point denotes the temperature, or range, at which the solid turns liquid. `CCCc1c(OCCCCc2nc3ccc(C(=O)O)cc3[nH]2)ccc(C(C)=O)c1O` showed a melting point of 98 to 100 °C.
For `CCc1ccc2c(c1)c(-c1ccccc1Cl)c(NC(=O)Nc1c(C)cccc1C(C)C)c(=O)n2C` the value was 198 to 199 °C; for `NC(C=Cc1ccc(Cl)cc1)=NO`, 102 to 104 °C; for `COc1cc(-c2nc3ccc(OCCN(C)C)cc3n2Cc2ccccc2C(F)(F)F)cc(OC)c1OC`, 151 °C.
On to `CCCCCCCCNC(=O)c1cscc1C(=O)O`, for which the melting point is 120 to 122 °C.
For `O=C(CN1C(=O)c2ccccc2C1=O)Nc1ccccc1Cc1ccccc1` the value was 232 °C; for `CC(C)c1n[nH]c2c(NCc3ccccc3Br)ncnc12`, 194 to 196 °C; for `Cc1nc2c(CCCc3ccccc3)cccn2c1CC#N`, 66.5 to 68 °C.
On to `C=CCOc1ccc2nc(S(N)(=O)=O)sc2c1`, for which the melting point is 184 to 187 °C.
Turning to `C#CCN(C(=O)OC(C)(C)C)C1CCc2ccc([N+](=O)[O-])cc21` (centres undefined), the melting point fell in the range of 56 to 59 °C.
For `O=C(Nc1ccc(N2CCN(C(=O)C(O)c3ccccc3Cl)CC2)nc1)Nc1ccccc1F` (centres undefined) the value was 127 to 128 °C; for `CCc1c(C)cccc1C(=O)NC1CN2CCC1CC2` (racemic), 125 °C.
Turning to `COc1ccc(-c2nc(Sc3nc(-c4ccc(OC)cc4)c(-c4ccc(OC)cc4)[nH]3)[nH]c2-c2ccc(OC)cc2)cc1`, the melting point lay in the range of 244 to 245 °C.
`CCCCC[C@H](CC(=O)NCc1c(C(C)C)cccc1C(C)C)c1cccc2c1OCO2`: the melting point lay within 133 to 134 °C.
As for `CNC(=O)N1CCc2[nH]cnc2C1c1cccs1` (centres undefined), the figure is 230 °C; as for `COc1cc(-c2c(-c3ccc(F)cc3)nc3ccc(N4CCN(C)CC4)nn23)ccn1`, 189 to 194 °C.
For `CCC1C(C)=NN=C(c2cc(OC)c(OC)c(OC)c2)c2cc(OC)c(OC)cc21` (centres undefined) the value was 152 to 155 °C; for `COc1ccc(CNc2ccc(C#N)cc2)cc1OC`, 150 °C; for `CCCCNC(=O)C(C)(C)n1cc(C)c(-c2ccccc2)n1`, 53 to 57 °C.
As for `COc1ccc(N2CCc3ccccc32)c([N+](=O)[O-])c1`, the figure is 88 to 90 °C; as for `CN1CCN(c2nc3sc4c(NCc5cccnc5)ncnc4c3c3c2COC(C)(C)C3)CC1`, 251 to 252 °C.
Take `CNC(=O)C(NC(=O)C(CC(C)C)C(S)CC(=O)OC)C(C)OCc1ccccc1` (centres undefined): the melting point was in the range of 113 to 119 °C.
For the compound `CCC(OCC(F)F)c1ccc(Cl)c2nc3n(c12)CCCN3c1ccc(OC)nc1C` (centres undefined), the melting point was in the range of 130 to 132 °C.
Consider `O=C1c2ccccc2C(O)N1c1cccc(C(F)(F)F)c1` (centres undefined), for which the melting point came to 202 °C.
As for `COc1ccc2nc(O)nc(O)c2c1`, the figure is more than 290 °C; as for `Cc1cc([N+](=O)[O-])c(C(=O)O)cc1F`, 163 to 165 °C; as for `CC(C)S(=O)(=O)c1ccc(Oc2ccc(Cl)c(Cl)c2)nc1`, 91 to 92 °C.
For `CC(=CC(=O)NC(C)(C)C)OC(=O)c1cc(S(C)(=O)=O)c(Cl)cc1NCc1ccco1` the value was 140 to 145 °C; for `Fc1ccc(OC(CCN2CCN(c3ccccc3)CC2)c2ccccc2)cc1` (centres undefined), 80 to 82 °C; for `C#CCOC(=O)c1cc(C)oc1C`, 35 to 37 °C.
In the case of `CC(C)n1cc2c3c(cccc31)C1CC(C(=O)NC3CCCC3O)CN(C)C1C2` (centres undefined), the melting point fell in the range of 232 to 234 °C.
`CN(C)CCOc1ccc(C=O)c(O)c1`: the melting point lay in the range of 82 to 83 °C.
For `Cc1cc(Nc2ccnc(Nc3ccc(S(=O)(=O)N(C)C4CCC(F)(F)CC4)cc3)n2)ccc1F` the value was 164 to 165 °C.
For `Cc1cc2c(=O)n3cc(C(N)=O)ccc3nc2s1` the value was 350 to 354 °C; for `COC(=O)c1c(CC(C)C)nc2ccc(Cl)cc2c1-c1ccccc1`, 111 to 112 °C; for `CC(=O)ON=C1Cc2ccccc2N(C(N)=O)c2ccccc21`, 176 to 177 °C.
On to `Cc1ccc([N+](=O)[O-])c(OCc2ccccc2)c1`, for which the melting point was in the range of 49 to 51 °C.
As for `COc1cc2ccc(C)cc2c(C)c1OC`, the figure is 68 to 69 °C; as for `CS(=O)C1C=Nc2cc(F)ccc2C1=O` (centres undefined), 265 °C; as for `Cc1cc(Cl)ccc1Cn1nc(OC(C)C)cc1CCCOc1nn(Cc2ccccc2)cc1CC(=O)O`, 81 to 82 °C.
For `COCc1cc(-c2ncc(C(F)(F)F)cc2Cl)ccc1Cl` the value was 52 to 54 °C; for `O=C(O)c1cc(Br)nc(Br)c1`, 179 to 187 °C.
`CSc1ncc(Cc2cccnc2)c(=O)[nH]1` came in with a melting point of 247 to 249 °C.
As for `CCOC(=O)c1nn(-c2ccc(OC(F)(F)F)cc2)c2cccc(F)c2c1=O`, the figure is 178 °C; as for `CCC1(c2cc(NC(=O)c3c(OC)cccc3OC)no2)CCCCC1`, 179 to 181 °C.
For `CC1CC(=O)NN=C1c1ccc(-n2cccc2)nc1` (centres undefined) the value was 192 to 193 °C; for `CC(C)(C)c1cc(C(CCc2ccccc2)NCP(=O)(O)O)cc(C(C)(C)C)c1O` (centres undefined), 162 to 169 °C; for `CCOC(=O)c1cn2c3c(c(F)c(F)cc3c1=O)OCC2`, 265 to 266 °C.
For the compound `COC(=O)CNC(=O)c1cccc(NC(=O)CCl)c1`, the melting point fell in the range of 122 to 124 °C.
For the compound `COc1cc(C(C)C#Cc2c(C)nc(N)nc2N)cc(OC)c1OC` (centres undefined), the melting point was 191 to 193 °C.
As for `Cc1cc(-c2ccc(Cl)c(Cl)c2)nc(-n2cnc(-c3ncc(S(N)(=O)=O)s3)c2)n1`, the figure is 230 °C.
Compound `CN(C)c1cc2c(cc1Cl)NC(=O)CC(c1cccc(-c3csc(CO)n3)c1)=N2` yielded a melting point of 176 to 178 °C.
With `CC1(c2ccc([N+](=O)[O-])cc2)OCCO1`, the melting point was 69 to 71 °C.
As for `OCC(CO)(COCc1ccccc1)COCc1ccccc1`, the figure is 73 °C.
Compound `COC(=O)c1cc(OC)c(N(C)C)c(OC)c1` gave a melting point of 71 to 72 °C.
As for `C[Si](C)(C)N=C(C(=N[Si](C)(C)C)c1ccccc1)c1ccccc1`, the figure is 69 to 70 °C; as for `Cc1ccc(C(O)(c2ccc(C)cc2)C2CCN(Cc3ccccc3)CC2)cc1`, 115 to 117 °C.
Take `COC(=O)c1cc(OC)c(CCNC(C)=O)c(OC)c1`: the melting point was 233 to 235 °C.
As for `Cc1ccsc1-c1nc(COc2ccc(CCCCn3ccnc3)cc2)co1`, the figure is 88 to 89 °C; as for `COc1ccc(S(=O)(=O)N(CC(N)=O)c2ccc(Cl)cc2C(O)c2ccccc2Cl)c(OC)c1` (centres undefined), 158 °C; as for `C[C@@H](NC(=O)c1cnn(-c2ccc(Cl)cc2)c1C1CC1)[C@](O)(Cn1cncn1)c1ccc(F)cc1F`, 181 to 182 °C.
As for `N=C(NCCCCC1CCN(CC(O)CO)CC1)NC(=O)c1nc(Cl)c(N)nc1N` (centres undefined), the figure is 188 to 191 °C; as for `CC(C)(C)c1cc(C(c2ccc(C#N)cc2)N2CCCCC2)c(O)c(C(C)(C)C)c1` (centres undefined), 165 to 166 °C.
For `COc1c(OC)c(OC(C)=O)c2cc(OCCc3ccccc3)ccc2c1OC(C)=O` the value was 70 to 71 °C.
